Marks after values point to notes of the source that are not given here.
How the values were obtained:
PGD2 receptor = molecular target: T1, PGD2 receptor (Homo sapiens, UniProt Q13258); test: Binding to PGD2 receptor ([3H]PGD2, human platelet membrane fraction); details: 5 nM [3H]PGD2, 4° C., 90 min, read-out: IC50 (concentration required for 50% inhibition of [3H]PGD2 binding)
T1 construct: The platelets mere homogenized using a homogenizer (Ultra-Turrax) followed by centrifugation 3 times at 20,000 rpm, 10 min at 4° C. to obtain a platelet membrane fraction; from tissue; host or cells: human platelets from venous blood of healthy volunteers (membrane fraction)
T1 sequence (Q13258 1-359): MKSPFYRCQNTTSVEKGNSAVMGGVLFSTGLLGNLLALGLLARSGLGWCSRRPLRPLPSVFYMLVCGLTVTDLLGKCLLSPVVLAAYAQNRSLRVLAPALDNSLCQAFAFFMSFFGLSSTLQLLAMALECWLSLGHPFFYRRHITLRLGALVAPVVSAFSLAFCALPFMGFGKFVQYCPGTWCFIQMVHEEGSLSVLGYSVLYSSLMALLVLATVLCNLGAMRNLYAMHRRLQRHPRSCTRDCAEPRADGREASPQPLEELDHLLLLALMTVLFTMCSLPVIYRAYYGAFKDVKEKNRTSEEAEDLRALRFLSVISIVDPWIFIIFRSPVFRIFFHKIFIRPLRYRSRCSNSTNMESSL
Procedure: (1) Preparation of Human Platelet Membrane Fraction
Blood sample was obtained using a plastic syringe containing 3.8% sodium citrate from the vein of healthy volunteers (adult male and female), put into a plastic test tube and mixed gently by rotation. The sample was then centrifuged at 1800 rpm, 10 min at room temperature and the supernatant containing PRP (platelet-rich plasma) was collected. The PRP was re-centrifuged at 2300 rpm, 22 min at room temperature to obtain platelets. The platelets mere homogenized using a homogenizer (Ultra-Turrax) followed by centrifugation 3 times at 20,000 rpm, 10 min at 4° C. to obtain a platelet membrane fraction. After protein determination, the membrane fraction was adjusted to 2 mg/ml and preserved in a refrigerator at −80° C. until use.
(2) Binding to PGD2 Receptor
To a binding-reaction solution (50 mM Tris/HCl, pH 7.4, 5 mM MgCl2) (0.2 ml) were added the human platelet membrane fraction (0.1 mg) and 5 nM [^3H]PGD2 (115 Ci/mmol). After reacting at 4° C. for 90 min, the mixture was filtered through a glass fiber filter paper and washed several times with cooled saline, to measure the radioactivity retained on the filter paper. The specific binding was calculated by subtracting the non-specific binding (the binding in the presence of 10 μM PGD2) from the total binding. The inhibitory activity of each compound was expressed as the concentration required for 50% inhibition (IC50), which was determined by depicting a substitution curve by plotting the binding ratio (%) in the presence of each compound, where the binding ratio in the absence of a test compound is 100%.

PGD2-induced itching = details: guinea pig; J. Pharmacol. Exp. Ther., 279, 137-142, 1996; cited from earlier work
[1] = tested on: itching caused by antigens; details: J. Pharmacol. Exp. Ther., 279, 137-142, 1996; cited from earlier work
[2] = tested on: Compound 48/80-induced scratching behavior; test: Mouse pruritus model: compound 48/80-induced scratching behavior; format: in vivo
Procedure: Investigation on Itch-Related Scratching Behavior in Mouse Pruritus Model: Effect on Compound 48/80-Induced Scratching Behavior Compound 48/80 (10 μg/site, Sigma), a non-immunological mast cell activator, was dissolved in physiological saline and subcutaneously injected into the rostral part of the back of female C57BL mice (8-12 weeks of age, Charles River Japan Inc.). […] Mice usually scratched several times successively in one behavior and a series of scratching was counted as one incidence. Compound Treatment Compound (IA-a-5), suspended in 0.5% methylcellulose, was orally administered 1 hour before the injection of compound 48/80 at a dose of 300 mg/kg. As a control, mice were treated with 0.5% methlycellulose. Results were shown in Table 16. *: P<0.05 versus control (Wilcoxon test).

[3] = tested on: Antigen-induced scratching behavior; test: Mouse pruritus model: antigen-induced scratching behavior; format: in vivo; details: female C57BL mice, observed 15 minutes, n = 7, control 51.6 ± 5.3
Procedure: Investigation on Itch-Related Scratching Behavior in Mouse Pruritus Model: Effect on Antigen-Induced Scratching Behavior 50 μl of diluted anti-benzylpenicilloyl (BPO) IgE monoclonal antibody was intradermally injected to the rostral part of the back skin of female C57BL (Table 17, 8-12 weeks of age, Charles River Japan Inc.) or male DS-Nh (Table 18, 7-8 weeks of age, Aburahi Laboratories, Shionogi & Co., Ltd.) mice. Twenty-four hours later, scratching behavior was induced by intravenously injection of physiological saline containing 1 mg of BPO-guinea pig serum albumin. […] In Table 17, the compound was treated in the same manner described in above 1). In Table 18, the compound were dissolved in physiological saline and intraperitoneally injected 30 minutes before antigen challenge. *: P<0.05, **: P<0.01 versus control (Dunnett's test).

Compound: CC1(C)[C@H]2C[C@H](C/C=C/CCCC(=O)O)[C@@H](NC(=O)c3csc4ccc(O)cc34)[C@@H]1C2 (single isomer, unassigned) [IA-a-18]
- IC50 (PGD2 receptor): 0.0012 µM

Compound: O=C(O)CCCCCCC1C(=O)N(Cc2ccccc2)C(=O)N1NCC(O)C1CCCCC1 (stereo not drawn) [BWA868C]
- inhibition of itching induced by instillation of PGD2 (PGD2-induced itching): inhibited
- inhibition of itching caused by antigens [1]: can not inhibit

Compound: CC1(C)[C@H]2C[C@H](C/C=C\CCCC(=O)O)[C@@H](NC(=O)c3csc4ccc(O)cc34)[C@@H]1C2 [IA-a-5, (5Z)-7-[(1R,2R,3S,5S)-2-(5-hydroxybenzo[b]thiophen-3-yl-carbonylamino)-6,6-dimethylbicyclo[3.1.1]hept-3-yl]-5-heptenoic acid]
- scratching caused by skin itching derived from the activation of mast cell, compared with the control group ([2]; Experiment 2, summary in words): reduced
- Mean ± S.E. (Number of scratching) ([2]; female C57BL mice, 300 mg/kg orally 1 hour before compound 48/80, observed 30 minutes, n = 10, control 122.2 ± 12.7): 81.8 ± 17.9*
- Mean ± S.E. (Number of scratching) ([3]; 100 mg/kg orally): 48.4 ± 12.4
- Mean ± S.E. (Number of scratching) ([3]; 300 mg/kg orally): 19.6 ± 6.5*

Compound: CC1(C)[C@H]2C[C@H](C/C=C\CCCC(=O)O)[C@@H](NC(=O)c3csc4ccc(F)cc34)[C@@H]1C2 [IA-a-11]
- IC50 (PGD2 receptor): 0.00027 µM

Compound: CC1(C)[C@H]2C[C@H](C/C=C/CCCC(=O)O)[C@@H](NC(=O)c3csc4ccc(O)cc34)[C@@H]1C2 [IA-a-17, (5E)-7-[(1R,2R,3S,5S)-2-(5-hydroxybenzo[b]thiophen-3-yl-carbonylamino)-6,6-dimethylbicyclo[3.1.1]hept-3-yl]-5-heptenoic Acid]
- IC50 (PGD2 receptor): 0.032 µM

Compound: CC1(C)[C@H]2C[C@@H](C/C=C\CCCC(=O)O)[C@@H](NC(=O)c3csc4ccc(O)cc34)[C@@H]1C2 [IA-c-1]
- IC50 (PGD2 receptor): 0.028 µM

Compound: CC1(C)[C@H]2C[C@@H](C/C=C/CCCC(=O)O)[C@@H](NC(=O)c3csc4ccc(O)cc34)[C@@H]1C2 [IA-c-2]
- IC50 (PGD2 receptor): 0.001 µM

Compound: CC1(C)[C@H]2C[C@H](NC(=O)c3csc4ccc(F)cc34)[C@@H](C/C=C\CCCC(=O)O)[C@@H]1C2 [IB-a′-2]
- IC50 (PGD2 receptor): 0.037 µM

From patent publication US6506789B2, “Methods for the treatment of itching comprising administering PGD2 receptor antagonist” (Shionogi & Co., Ltd., priority 1998, dated 2003)
